The source of these data is patent publication US20240279265A1, “CRYSTAL FORMS OF GLUCOSAMINE DERIVATIVE, AND PREPARATION METHOD THEREFOR AND USE THEREOF” (RISEN (SUZHOU) PHARMA TECH CO., LTD., priority 2021, published 2024).

What all share (format): physicochemical
A short description of data set [1]: Thermogravimetric analysis (TGA). To be noted: heated at 10° C./min under nitrogen. The procedure:
TGA: Samples were analyzed using a TA Instruments TGA Discovery 550. The sample were placed in a tared aluminum tray and automatically weighed, and then the samples were brought to the specified temperatures at a rate of 10° C./min under the protection of nitrogen. In the present invention, the TGA graphs of the above three samples are illustrated in the form of overlay, as shown in FIG. 5.

A further data set is described as follows: Solubility test in water. To be noted: purified water, room temperature, stirred 2 hours. How it is done:
The excess crystals were dissolved in an amount of purified water in a 4 ml vial at room temperature. The mass of an empty watch glass was recorded as m1.
The suspension was stirred for 2 hours and then filtered through a […] into an empty watch glass, the mass m2 at this point was recorded for this watch glass, and the remaining solid was used for XRPD analysis.
The watch glass containing the filtrate was dried in an oven at 40° C. After drying, the mass m3 was recorded and the solubility data of the substrate could be calculated. The masses of the watch glass as well as the amounts of solid and solution are listed in Table 6, and the experimental results are shown in Table 7 and FIG. 12.

Data set [2] can be described thus: Dynamic vapor sorption (DVS). The following applies: for DVS weight gain at an RH of 80%: RH 80%, 25±1° C.; for Mass change (%) - ref, Delay: desorption minus sorption. How it is done:
DVS: Samples were analyzed using an Intrinsic DVS ([…] UK). The amount of test sample was about 20-30 mg. The temperature of the test chamber was controlled between 25±1° C., the relative humidity was increased from 0% to 90% and then decreased to 0% at a rate of 10%/h, and the quality data was recorded every 20 s.

The nature of data set [3]: Stability test (crystalline form by XRPD). To be noted: one week. How it is done:
10 mg of the solid was placed into a 2 ml glass vial and the vial was transferred to a stability chamber. The experimental conditions were 25° C./92.5% RH, 40° C./75% RH, 60° C., and light, respectively.

Data set [4] can be described thus: Solubility in buffer of crystalline form I. The text has this: The solubility of crystalline form I of the present invention was investigated at room temperature in buffers at pH 1.2, 4.5 and 6.8. The procedure was consistent with that of the solubility test in water. The masses of the watch glass as well as the amounts of solid and solution are listed in Table 8, and the experimental results are shown in Table 9.

Take `CCCC(=O)N[C@H]1C(O)O[C@H](COC(=O)CCC)[C@@H](OC(=O)CCC)[C@@H]1O` (stereo partly drawn) [API, 2-N-4,6-di-O-tributyryl-D-glucosamine]: the “TGA weight loss (wt %)” value in data set [1] came to 0.966 wt %. Further, in the data set “Solubility test in water”, the Solubility in water was 8.12 mg/g. Further, in data set [2], the “DVS weight gain at an RH of 80%” value is 2.440%.
For `CCCC(=O)N[C@H]1C(O)O[C@H](COC(=O)CCC)[C@@H](OC(=O)CCC)[C@@H]1O` (stereo partly drawn) [Crystalline Form I, 2-N-4,6-di-O-tributyryl-D-glucosamine], the “TGA weight loss (wt %)” value in data set [1] was found to be 0.344 wt %. The “Whether the crystalline form is changed” value in data set [3] (25° C., 92.5% RH) was “No”; in data set [3] (40° C., 75% RH), “No”; in data set [3] (60° C.) it was “No”; in data set [3] (Light), “No”. For the same compound, the Solubility in water in the data set “Solubility test in water” is on record as 9.02 mg/g; in the data set “Solubility test in water” (listed as crystalline form I), 9.08 mg/g. The “Mass change (%) - ref, Desorption” value in data set [2] (Cycle 1, objective RH 0.0%) is −0.022%; in data set [2] (Cycle 1, objective RH 10.0%), 0.082%; in data set [2] (Cycle 1, objective RH 20.0%), 0.160%; in data set [2] (Cycle 1, objective RH 30.0%), 0.270%; in data set [2] (Cycle 1, objective RH 40.0%), 0.409%; in data set [2] (Cycle 1, objective RH 50.0%), 0.498%. For the same compound, the “Mass change (%) - ref, Desorption” value in data set [2] (Cycle 1, objective RH 60.0%) is given as 0.627%; in data set [2] (Cycle 1, objective RH 70.0%), 0.789%; in data set [2] (Cycle 1, objective RH 80.0%) it was 1.031%; in data set [2] (Cycle 1, objective RH 90.0%), 1.662%. In addition, the “Mass change (%) - ref, Sorption” value turned out to be 0.001% in data set [2] (Cycle 1, objective RH 0.0%); 0.092% in data set [2] (Cycle 1, objective RH 10.0%); 0.175% in data set [2] (Cycle 1, objective RH 20.0%); 0.276% in data set [2] (Cycle 1, objective RH 30.0%); 0.417% in data set [2] (Cycle 1, objective RH 40.0%); 0.502% in data set [2] (Cycle 1, objective RH 50.0%). The “Mass change (%) - ref, Sorption” value in data set [2] (Cycle 1, objective RH 60.0%) amounted to 0.626%; in data set [2] (Cycle 1, objective RH 70.0%) it was 0.800%; in data set [2] (Cycle 1, objective RH 80.0%), 1.037%; in data set [2] (Cycle 1, objective RH 90.0%), 1.662%. Moreover, the “Mass change (%) - ref, Delay” value is given as −0.010% in data set [2] (Cycle 1, objective RH 10.0%); −0.015% in data set [2] (Cycle 1, objective RH 20.0%); −0.006% in data set [2] (Cycle 1, objective RH 30.0%); −0.007% in data set [2] (Cycle 1, objective RH 40.0%); −0.003% in data set [2] (Cycle 1, objective RH 50.0%); 0.001% in data set [2] (Cycle 1, objective RH 60.0%). In addition, the “Mass change (%) - ref, Delay” value was −0.011% in data set [2] (Cycle 1, objective RH 70.0%) and −0.006% in data set [2] (Cycle 1, objective RH 80.0%). In addition, the “DVS weight gain at an RH of 80%” value in data set [2] is 1.037%. In addition, the Solubility in buffer in data set [4] (buffer pH 1.2, room temperature) is 4.08 mg/g; in data set [4] (buffer pH 4.5, room temperature), 6.58 mg/g; in data set [4] (buffer pH 6.8, room temperature), 10.02 mg/g.
Consider `CCCC(=O)N[C@H]1C(O)O[C@H](COC(=O)CCC)[C@@H](OC(=O)CCC)[C@@H]1O` (stereo partly drawn) [Crystalline Form II, 2-N-4,6-di-O-tributyryl-D-glucosamine], for which the “TGA weight loss (wt %)” value in data set [1] is given as “None”. Further, the values for the Solubility in water in “Solubility test in water” and in the data set “Solubility test in water” (listed as crystalline form II) were 9.08 mg/g and 9.02 mg/g, respectively. For the same compound, the “Mass change (%) - ref, Desorption” value is listed as 0.023% in data set [2] (Cycle 1, objective RH 0.0%); 0.552% in data set [2] (Cycle 1, objective RH 10.0%); 0.659% in data set [2] (Cycle 1, objective RH 20.0%); 0.777% in data set [2] (Cycle 1, objective RH 30.0%); 0.913% in data set [2] (Cycle 1, objective RH 40.0%); 0.968% in data set [2] (Cycle 1, objective RH 50.0%). In addition, in data set [2] (Cycle 1, objective RH 60.0%), the “Mass change (%) - ref, Desorption” value was 1.080%. Besides, the “Mass change (%) - ref, Sorption” value came out at 0.000% in data set [2] (Cycle 1, objective RH 0.0%); 0.086% in data set [2] (Cycle 1, objective RH 10.0%); 0.165% in data set [2] (Cycle 1, objective RH 20.0%); 0.257% in data set [2] (Cycle 1, objective RH 30.0%); 0.324% in data set [2] (Cycle 1, objective RH 40.0%); 0.368% in data set [2] (Cycle 1, objective RH 50.0%). The “Mass change (%) - ref, Sorption” value in data set [2] (Cycle 1, objective RH 60.0%) worked out at 0.457%. For the same compound, the “Mass change (%) - ref, Delay” value in data set [2] (Cycle 1, objective RH 10.0%) is recorded as 0.466%; in data set [2] (Cycle 1, objective RH 20.0%), 0.494%; in data set [2] (Cycle 1, objective RH 30.0%) it was 0.520%; in data set [2] (Cycle 1, objective RH 40.0%), 0.590%; in data set [2] (Cycle 1, objective RH 50.0%), 0.600%; in data set [2] (Cycle 1, objective RH 60.0%) it was 0.623%. The “DVS weight gain at an RH of 80%” value in data set [2] is on record as 0.869%.
